Laboratory results published in ChEMBL document CHEMBL1131864, “Effects of sesquiterpenes and triterpenes from the rhizome of Alisma orientale on nitric oxide production in lipopolysaccharide-activated macrophages: absolute stereostructures of alismaketones-B 23-acetate and -C 23-acetate” (Bioorg Med Chem Lett, 1999).
pIC50: −log10 of the molar value.

Legend:
Assay type in all cases: functional
Mus musculus [1] = organism: Mus musculus; experiment: Concentration required for inhibition of nitric oxide production in LPS-activated mouse macrophages
Mus musculus [2] = organism: Mus musculus; experiment: Inhibition of nitric oxide production in LPS-activated mouse macrophages at a concentration of 1 uM
Mus musculus [3] = organism: Mus musculus; experiment: Inhibition of nitric oxide production in LPS-activated mouse macrophages at a concentration of 10 uM
Mus musculus [4] = organism: Mus musculus; experiment: Inhibition of nitric oxide production in LPS-activated mouse macrophages at a concentration of 100 uM
Mus musculus [5] = organism: Mus musculus; experiment: Inhibition of nitric oxide production in LPS-activated mouse macrophages at a concentration of 3 uM
Mus musculus [6] = organism: Mus musculus; experiment: Inhibition of nitric oxide production in LPS-activated mouse macrophages at a concentration of 30 uM

| pIC50 (Mus musculus [1]) | SMILES | inhibition at 1 µM (Mus musculus [2]) [%] | inhibition at 10 µM (Mus musculus [3]) [%] | inhibition at 100 µM (Mus musculus [4]) [%] | inhibition at 3 µM (Mus musculus [5]) [%] | inhibition at 30 µM (Mus musculus [6]) [%] |
| --- | --- | --- | --- | --- | --- | --- |
| < 5.00 | CC(=O)O[C@@H](C[C@@H](C)C1=C2C[C@H](O)C3[C@@]4(C)CCC(=O)C(C)(C)C4CC[C@]3(C)[C@@]2(C)CC1)[C@H]1OC1(C)C (stereo not given in full) | 0 | 29.7 | 105 | 13.4 | 106 |
| 4.17 | CC(C)C1=CC2C(CC[C@]2(C)O)[C@@](O)(CO)CC1 (stereo not given in full) | -4.3 | 4.8 | 64.1 | -3.1 | 21.2 |
| 4.77 | C[C@H](CC(=O)CC(C)(C)O)C1=C2CCC3[C@@]4(C)CCC(=O)C(C)(C)C4CC[C@]3(C)[C@@]2(C)CC1=O (stereo not given in full) | -5.1 | 26.7 | 97.2 | 17.2 | 71.3 |
| 4.64 | CC(=O)O[C@@H](C[C@@H](C)C(=O)CC[C@@]1(C)C(=O)C=CC2[C@@]3(C)CCC(=O)C(C)(C)C3CC[C@@]21C)[C@H]1OC1(C)C (stereo not given in full) | 2.9 | 22.7 | 114 | 10.2 | 61 |
| 4.44 | CC(=O)O[C@H]1C[C@@H](C)C2=C3C[C@H](O)C4[C@@]5(C)CCC(=O)C(C)(C)C5CC[C@]4(C)[C@@]3(C)C[C@@H]2O[C@H]1C(C)(C)O (stereo not given in full) | -4.5 | 13.5 | 90.8 | 7.5 | 42.9 |
| < 5.00 | C=C(C)[C@H](O)[C@@H](O)C[C@@H](C)C1=C2C[C@H](O)C3[C@@]4(C)CCC(=O)C(C)(C)C4CC[C@]3(C)[C@@]2(C)CC1 (stereo not given in full) | 8.8 | 29.7 | 106 | 21.4 | 104 |
| < 5.00 | CC(=O)O[C@@H](C[C@@H](C)C1=C2[C@H](O)[C@H](O)C3[C@@]4(C)CCC(=O)C(C)(C)C4CC[C@]3(C)[C@@]2(C)CC1)[C@H]1OC1(C)C (stereo not given in full) | 5.9 | 32.3 | 116 | 4 | 117 |
| 4.82 | C[C@@H]1CC([C@@H](O)C(C)(C)O)OC2C[C@@]3(C)C(=C21)C[C@H](O)C1[C@@]2(C)CCC(=O)C(C)(C)C2CC[C@@]13C (stereo not given in full) | 7.5 | 40.3 | 99.5 | 14.8 | 69.6 |
| 4.80 | CC(=O)O[C@@H](C[C@@H](C)C1=C2C[C@@H]3OC(=O)C[C@@]4(C)C(C(C)(C)C(=O)O)CC[C@@](C)(C34)[C@@]2(C)CC1)[C@H]1OC1(C)C (stereo not given in full) | 10.3 | 38.2 | 90.7 | 23.2 | 65.6 |
| 4.64 | C=C1CCC(C(C)C)=CC2C1CC[C@]2(C)O (stereo not given in full) | 3.4 | 27 | 97.4 | 17.6 | 57.5 |
| 5.03 | CC(=O)O[C@@H](C[C@@H](C)C1=C2[C@H](O)[C@H](O)C3[C@@]4(C)CCC(=O)C(C)(C)C4CC[C@]3(C)[C@@]2(C)CC1=O)[C@H]1OC1(C)C (stereo not given in full) | 19 | 50.8 | 104 | 29.7 | 86.3 |
| 4.38 | CC(=O)O[C@@H](C[C@@H](C)C1=C2C[C@H](O)C3[C@@]4(C)CCC(=O)C(C)(C)C4CC[C@]3(C)[C@@]2(C)CC1=O)[C@H]1OC1(C)C (stereo not given in full) | 2.9 | 21.1 | 67.3 | 13.3 | 43.8 |
| < 5.00 | C[C@H](C[C@H](O)[C@H](O)C(C)(C)O)C1=C2C[C@H](O)C3[C@@]4(C)CCC(=O)C(C)(C)C4CC[C@]3(C)[C@@]2(C)CC1 (stereo not given in full) | 5.8 | 30 | 111 | 21.4 | 113 |
| < 5.00 | CC(=O)O[C@@H](C[C@@H](C)[C@]12O[C@H]1C[C@@]1(C)C2=CC(=O)C2[C@@]3(C)CCC(=O)C(C)(C)C3CC[C@@]21C)[C@H]1OC1(C)C (stereo not given in full) | 9.9 | 31.1 | 114 | 11.9 | 83.6 |
| 4.92 | C[C@@H]1CC([C@H]2OC2(C)C)OC2C[C@@]3(C)C(=C21)CCC1[C@@]2(C)CCC(=O)C(C)(C)C2CC[C@@]13C (stereo not given in full) | -5.1 | 31.2 | 100 | 21.7 | 84.2 |
| 5.00 | COC(=O)C(C)(C)C1CC[C@@]2(C)C3[C@H](CC4=C([C@H](C)C[C@H](OC(C)=O)[C@H]5OC5(C)C)CC[C@@]42C)OC(=O)C[C@@]13C (stereo not given in full) | -2.6 | 49.2 | 110 | 17.2 | 84.2 |
| < 4.00 | CC(C)C1=CC2C(CC[C@]2(C)O)[C@@](O)(CS(=O)(=O)O)CC1 (stereo not given in full) | 2.8 | 4.9 | 21.3 | -2.2 | 16.3 |
| 4.24 | C=C1/C=C/[C@H](C(C)C)CC/C(C)=C/CC1 [GERMACRENE D] | 7.5 | 16.7 | 68.5 | 1.6 | 29 |
| 5.40 | O=C(/C=C/c1ccc(O)c(O)c1)OCCc1ccccc1 [CAFFEIC ACID PHENETHYL ESTER] | -1.9 | 97.5 | 104 | 25.5 | 104 |
| 5.85 | N=C(N)NCCSSCCNC(=N)N [GUANIDINOETHYLDISULFIDE] | 39.1 | 102 | 105 | 76.3 | 105 |
| < 4.00 | CC(C)C1=CC2C(CC[C@]2(C)O)/C(=C/S(=O)(=O)O)CC1 (stereo not given in full) | 8.4 | 11 | 27.1 | 14.3 | 21.5 |
| 4.55 | CNC(=N)NCCC[C@H](N)C(=O)O [TILARGININE] | 4.4 | 17.7 | 79.2 | 2 | 52.3 |
| 4.80 | CC(=O)O[C@@H](C[C@@H](C)C1=C2C[C@H](O)C3[C@@]4(C)CCC(=O)C(C)(C)C4CC[C@]3(C)[C@@]2(C)CC1)[C@H](O)C(C)(C)O (stereo not given in full) | 9.2 | 32.1 | 104 | 10 | 81 |
| 4.28 | C=C1CC[C@@]2(C(C)C)O[C@H]2C2C1CC[C@]2(C)O (stereo not given in full) | 0.9 | 14.1 | 74.9 | 5 | 29.2 |
| < 4.00 | CC(C)[C@]12CC[C@](C)(O1)C1CC[C@](C)(S(=O)(=O)O)C1[C@@H]2O (stereo not given in full) | 3.3 | 4.3 | 24.7 | -2.1 | 12.6 |
| < 5.00 | CC(=O)O[C@H]([C@@H](O)C[C@@H](C)C1=C2C[C@H](O)C3[C@@]4(C)CCC(=O)C(C)(C)C4CC[C@]3(C)[C@@]2(C)CC1)C(C)(C)O (stereo not given in full) | -2.9 | 13.4 | 112 | 6.4 | 71 |
| < 4.00 | CC(C)C1=CC2C(CC[C@]2(C)O)[C@](C)(O)CC1 (stereo not given in full) | -2.5 | 0.4 | 33.1 | -1.8 | 12 |
| 5.08 | CC(=O)O[C@@H](C[C@@H](C)C1=C2C=CC3[C@@]4(C)CCC(=O)C(C)(C)C4CC[C@]3(C)[C@@]2(C)CC1=O)[C@H]1OC1(C)C (stereo not given in full) | 17.8 | 54.8 | 104 | 27.9 | 86.5 |
| < 5.00 | C[C@H](C[C@H](O)[C@H]1OC1(C)C)C1=C2C[C@H](O)C3[C@@]4(C)CCC(=O)C(C)(C)C4CC[C@]3(C)[C@@]2(C)CC1 (stereo not given in full) | 13.2 | 36.3 | 108 | 21.3 | 109 |
| < 5.00 | C[C@H](C[C@H](O)[C@@H](O)C(C)(C)O)C1=C2C[C@H](O)C3[C@@]4(C)CCC(=O)C(C)(C)C4CC[C@]3(C)[C@@]2(C)CC1 (stereo not given in full) | 0.2 | 26.2 | 114 | 21.4 | 84.2 |
